{"source": "paper PMC11994644", "about": "“In vivo quantification of [^11C]BIO-1819578 in non-human primates, a novel radioligand for O-GlcNAcase” (Journal of Cerebral Blood Flow & Metabolism, 2025)", "key": {"[1]": {"molecular_target": "OGA", "details": "cited from earlier work"}, "[2]": {"system": "O-GlcNAcase (OGA)", "experiment": "OGA occupancy after pretreatment with Thiamet-G (revisited Lassen plot)", "type": "in vivo, cynomolgus monkey"}}, "note": "Entries after “also recorded” stand apart in the source; their conditions may differ.", "data": [{"smiles": "CC(=O)Nc1ncc(CN2CCC[C@H](N(C)c3ccc(F)cn3)C2)s1", "note": "[BIO-1819578]", "values": [{"measurement": "Kd", "setting": "[1]", "value": 2.3, "unit": "nM"}]}, {"smiles": "CCN=C1N[C@@H]2[C@@H](O)[C@H](O)[C@@H](CO)O[C@@H]2S1", "note": "[Thiamet-G]", "values": [{"measurement": "occupancy", "setting": "[2]; Thiamet-G 10 mg/kg i.v. 45 minutes prior to PET, 2TCM, one NHP", "value": 97.6, "unit": "%"}, {"measurement": "effect of pretreatment on [^11C]BIO-1819578 distribution volume (VT)", "setting": "[2]; Thiamet-G 10 mg/kg i.v., NHP 3", "value": "reduced the distribution volume in all brain regions; also recorded: decreased in all regions"}]}]}
